Broadly, the EC50 is the concentration at which the effect is half-maximal.

Each structure is given as a SMILES string.

Experiment [1] addresses T1, horseradish peroxidase (HRP) tagged delF508-CFTR (Homo sapiens, UniProt P13569, DEL508-508).
T1 construct: expressed in transfected cells
The experiment in a line: Measurement of delF508-CFTR-HRP surface expression in CFBE41o- cells.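 As to DelF508-CFTR-HRP Amax %: percent efficacy relative to reference corrector lumacaftor.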 In kind it is cell-based. To be noted: delF508-CFTR-HRP surface expression, CFBE41o- cells; for Emax: read-out: DelF508-CFTR-HRP Amax %; for EC50: read-out: DelF508-CFTR-HRP EC50. The method in brief: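 Surface-trafficked delF508-CFTR detected via extracellular HRP tag, read as luminescence from a membrane-impermeant substrate in CFBE41o- cells. Cells pre-induced 48h with 500 ng/mL doxycycline, then exposed 24h at 37° C to a 10-point, 3-fold dilution series from 10 μM (DMSO ≤0.5%). Triplicate dose-responses fitted logistically for EC50 after per-plate normalization; fold change versus reference compound.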

A further experiment addresses T2, delF508-CFTR (Homo sapiens, UniProt P13569, DEL508-508).
T2 construct: functional activity of the CFTR channel (Chloride ion transport) in patient derived primary human bronchial epithelial cells; host or cells: patient-derived primary human bronchial epithelial cells (delF508-CFTR)
The experiment in a line: Measurement of delF508-CFTR functional activity in primary human bronchial epithelial cells (HBECs) using Multi-Transepithelial Clamp Circuit (MTECC-24) assay. In kind it is cell-based. To be noted: primary CF HBECs; for MTECC24 CFHBEC- Amax %: test compound added 24h before assay plus potentiator, relative to reference combination (2 μM corrector + 0.5 μM potentiator); for EC50: test compound added 24h before assay, in the presence of potentiator, mean of at least two replicates, read-out: MTECC24 CFHBEC- EC50. The text has this:
[formula] Measurement of delF508-CFTR Functional Activity in Primary Human Bronchial Epithelial Cells (HBECs) Using Multi-Transepithelial Clamp Circuit (MTECC-24) Assay
This assay measures the functional activity of the CFTR channel (Chloride ion transport) in patient derived primary human bronchial epithelial cells with forskolin activation and in the presence of the CFTR corrector/potentiator combo.
Primary human delF508-CFTR bronchial epithelial cells were purchased from Asterand and cultured according to previously established methods (Fulcher et al. (2005) Methods Mol Med 107: 183-206). Briefly, vendor supplied cells were rapidly defrosted and added to a T175 flask in 50 mL growth media (Lonza BEBM media with Lonza BEGM singlequots). Media was replaced after 24h and then cells were fed every other day until cells were 80-90% confluent, at which point cells were cryopreserved. These P1 vials were thawed at 37° C. as needed and added to T175 flasks in 50 mL growth media at 5×10^5 cells/flask. Media was replaced after 24h, and then cells were fed every other day until 80-90% confluent. Cells were lifted with 5 mL accutase at 37° C. for 5 minutes, centrifuged at 1000 rpms for 5 min (300 g), and resuspended in differentiation media (50% BEBM in DMEM, BEGM singlequots, all trans retinoic acid (5×10^−8M)). Cells were then counted and cell suspension was added to collagen coated inserts at 3×10^4 cells/insert in 0.15 mL with 0.5 mL differentiation media on the basolateral side.
Apical and basolateral media were replaced on alternate days, and following day 7 (or when confluent plus 2 days), air liquid interface was established for approximately two weeks by removal of apical media. One day prior to use on the MTECC24 system (EP-Devices, EP Design, Belgium), 0.15 mL of warmed (37° C.) PBS was added to the apical surface of the cultures and returned to humidifier (37° C., 5% CO2 incubator) for 30 min before aspirating the apical surface to remove any mucus.
Compound treatments were then prepared. Compound dilutions, typically a 10 point concentration response with 1 in 3 dilution steps, were made in 100% DMSO before dilution 1 in 1000 into differentiation medium with a final DMSO concentration of 0.1% or 0.2% for the study. Compound containing medium was then transferred into the wells of a 24 well plate at 0.5 mL per well and warmed for 30 min in a 37° C. incubator prior to transferring washed inserts into the compound containing plates. Cells were incubated in compound containing medium (basolateral only) for 24h prior to measurement in the MTECC24 system.
Following 24 hr treatment, compound dilutions were prepared again, diluted 1 in 1000 into 37° C. assay medium (F-12 Coon's modified, 20 mM HEPES pH7.4 with TRIS Base, No FCS or bicarbonate). Cells which were treated for 24h with test compound were then transferred into plates containing 0.75 mL compound treatment in assay medium (basolateral) and 0.25 mL of the compound containing assay medium was added to the apical surface. The plates were then transferred to the heated plate compartments of the MTECC24 system for 45 min prior to measurements (this can also be done in a non-CO2 37° C. humidified incubator). Basolateral temperature should not exceed 36.5° C. and apical temperature should be approximately 35.5° C.
Modulators were added sequentially as follows while the MTECC24 instrument recorded the equivalent short circuit current (Ieq):
Prior to dilution into F-12 medium the stocks are as follows:
Amiloride stock is 10 mM in H2O
Forskolin Stock is 10 mM in 100% DMSO
(S)-3-amino-6-methoxy-N-(3,3,3-trifluoro-2-hydroxy-2-methylpropyl)-5-(trifluoromethyl)picolinamide is 0.5 mM stock in 100% DMSO
INH-172 (4-[[4-Oxo-2-thioxo-3-[3-trifluoromethyl)phenyl]-5-thiazolidinylidene]methyl]benzoic acid) stock is 30 mM in 100% DMSO
The data was normalized using the median signal from wells treated with 0.1% DMSO as a baseline. […]

T1 sequence (P13569 with tags, fused parts or gaps DEL508-508): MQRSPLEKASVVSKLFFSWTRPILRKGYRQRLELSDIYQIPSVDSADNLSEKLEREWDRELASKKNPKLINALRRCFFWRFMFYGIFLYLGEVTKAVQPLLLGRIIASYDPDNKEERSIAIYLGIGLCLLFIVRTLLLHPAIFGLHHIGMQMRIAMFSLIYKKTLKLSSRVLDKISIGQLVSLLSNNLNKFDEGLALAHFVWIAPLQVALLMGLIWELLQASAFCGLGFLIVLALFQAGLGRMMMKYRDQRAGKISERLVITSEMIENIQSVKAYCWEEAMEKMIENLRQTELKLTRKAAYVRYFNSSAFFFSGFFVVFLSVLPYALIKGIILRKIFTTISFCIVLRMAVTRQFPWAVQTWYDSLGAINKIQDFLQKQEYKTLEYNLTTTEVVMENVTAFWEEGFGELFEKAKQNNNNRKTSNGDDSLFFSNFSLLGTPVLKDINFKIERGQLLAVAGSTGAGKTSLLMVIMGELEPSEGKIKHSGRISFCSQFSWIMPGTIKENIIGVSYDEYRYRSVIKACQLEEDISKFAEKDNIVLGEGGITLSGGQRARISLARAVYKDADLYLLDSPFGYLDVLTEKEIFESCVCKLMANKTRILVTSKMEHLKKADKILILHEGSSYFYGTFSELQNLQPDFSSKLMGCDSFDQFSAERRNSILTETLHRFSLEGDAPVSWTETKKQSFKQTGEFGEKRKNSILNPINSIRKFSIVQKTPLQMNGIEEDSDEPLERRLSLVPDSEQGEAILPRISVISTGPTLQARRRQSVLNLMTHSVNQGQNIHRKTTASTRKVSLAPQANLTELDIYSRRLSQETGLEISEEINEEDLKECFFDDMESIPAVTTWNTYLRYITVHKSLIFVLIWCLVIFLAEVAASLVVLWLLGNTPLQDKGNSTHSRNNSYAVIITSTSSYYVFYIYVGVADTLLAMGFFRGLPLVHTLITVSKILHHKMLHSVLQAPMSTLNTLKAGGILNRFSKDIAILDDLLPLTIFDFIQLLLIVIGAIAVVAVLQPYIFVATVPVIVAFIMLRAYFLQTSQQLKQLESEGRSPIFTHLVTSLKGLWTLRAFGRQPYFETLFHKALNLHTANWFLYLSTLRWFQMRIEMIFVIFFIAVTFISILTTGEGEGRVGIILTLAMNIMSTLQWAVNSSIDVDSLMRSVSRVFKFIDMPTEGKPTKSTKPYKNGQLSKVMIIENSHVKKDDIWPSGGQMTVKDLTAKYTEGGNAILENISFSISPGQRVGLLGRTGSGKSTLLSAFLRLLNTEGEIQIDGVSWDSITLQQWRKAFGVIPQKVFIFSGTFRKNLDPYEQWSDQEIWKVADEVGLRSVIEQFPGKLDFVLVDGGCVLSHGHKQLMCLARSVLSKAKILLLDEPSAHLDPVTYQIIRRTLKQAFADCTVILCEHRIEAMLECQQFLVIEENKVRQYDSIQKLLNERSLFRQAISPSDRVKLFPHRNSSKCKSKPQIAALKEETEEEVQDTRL
T2 sequence (P13569 with tags, fused parts or gaps DEL508-508): as above

As for `Cc1c(F)cccc1-c1nc(NS(=O)(=O)c2cccc(N)n2)ccc1C(F)(F)F` [Example 7, 6-amino-N-(6-(3-fluoro-2-methylphenyl)-5-(trifluoromethyl)pyridin-2-yl)pyridine-2-sulfonamide], in experiment [1], the Emax was 610% and the concentration giving a half-maximal response (EC50) turned out to be 1630 nM. At delF508-CFTR, the “MTECC24 CFHBEC- Amax %” value is given as 66.8% and the EC50 came to 2.7 nM.
In the same order, the values of `Cc1cccc(C)c1-c1cc(Cl)cc(NS(=O)(=O)c2cccc(N)n2)n1` [Example 10, 6-amino-N-(4-chloro-6-(2,6-dimethylphenyl)pyridin-2-yl)pyridine-2-sulfonamide] are 592%, 1530 nM, 87.0% and 5.8 nM.
Taken in the same sequence, the figures for `Cc1cccc(C)c1-c1nc(NS(=O)(=O)c2cccc(N)n2)ccc1Cl` [Example 11, 6-amino-N-(5-chloro-6-(2,6-dimethylphenyl)pyridin-2-yl)pyridine-2-sulfonamide] were 579%, 1350 nM, 94.3% and 13.6 nM.
Taken in the same sequence, the figures for `Cc1c(F)cccc1-c1nc(NS(=O)(=O)c2cccc(N)n2)ccc1Cl` [Example 12, 6-amino-N-(5-chloro-6-(3-fluoro-2-methylphenyl)pyridin-2-yl)pyridine-2-sulfonamide] were 555%, 1320 nM, 85.2% and 9.7 nM.
With `Cc1cccc(Cl)c1-c1nc(NS(=O)(=O)c2cccc(N)n2)ccc1Cl` [Example 13, 6-amino-N-(5-chloro-6-(2-chloro-6-methylphenyl)pyridin-2-yl)pyridine-2-sulfonamide], in experiment [1], the Emax came out at 536% and the EC50 came out at 1310 nM. For the same compound, on delF508-CFTR, the “MTECC24 CFHBEC- Amax %” value came out at 100.1% and the EC50 worked out at 24 nM.
Taken in the same sequence, the figures for `Nc1cccc(S(=O)(=O)Nc2ccc(C(F)(F)F)c(-c3ccccc3Cl)n2)n1` [Example 17, 6-amino-N-(6-(2-chlorophenyl)-5-(trifluoromethyl)pyridin-2-yl)pyridine-2-sulfonamide] were 510%, 2090 nM, 69.5% and 5.1 nM.
In the same order, the values of `Nc1cccc(S(=O)(=O)Nc2ccc(C(F)(F)F)c(-c3ccccc3C(F)(F)F)n2)n1` [Example 18, 6-amino-N-(5-(trifluoromethyl)-6-(2-(trifluoromethyl)phenyl)pyridin-2-yl)pyridine-2-sulfonamide] are 505%, 1890 nM, 65.5% and 7.9 nM.
As for `Cc1cccc(C)c1-c1nc(NS(=O)(=O)c2ccnc(N)c2)ccc1C(F)(F)F` [Example 25, 2-amino-N-(6-(2,6-dimethylphenyl)-5-(trifluoromethyl)pyridin-2-yl)pyridine-4-sulfonamide], in experiment [1], the Emax amounted to 482% and the EC50 came out at 1060 nM. Moreover, at delF508-CFTR, the “MTECC24 CFHBEC- Amax %” value was 94.2% and the EC50 stood at 14.5 nM.
Taken in the same sequence, the figures for `Nc1cccc(S(=O)(=O)Nc2ccc(C(F)(F)F)c(-c3ccccc3C3CC3)n2)n1` [Example 28] were 429%, 1380 nM, 77.1% and 1.6 nM.
Taken in the same sequence, the figures for `Cc1c(-c2nc(NS(=O)(=O)c3cccc(N)n3)ccc2Cl)cccc1C(F)(F)F` [Example 34, 6-amino-N-(5-chloro-6-(2-methyl-3-(trifluoromethyl)phenyl)pyridin-2-yl)pyridine-2-sulfonamide] were 400%, 2520 nM, 58.2% and 11.6 nM.
Take `Cc1ccccc1-c1nc(NS(=O)(=O)c2ccc(C)c(N)n2)ccc1C(F)(F)F` [Example 36, 6-amino-5-methyl-N-(6-(o-tolyl)-5-(trifluoromethyl)pyridin-2-yl)pyridine-2-sulfonamide]: in experiment [1], the Emax was determined as 390% and the half-maximal effective concentration (EC50) was determined as 2100 nM. In addition, at delF508-CFTR, the “MTECC24 CFHBEC- Amax %” value was 67.6% and the half-maximal effective concentration (EC50) is 25.9 nM.
In the same order, the values of `Nc1cccc(S(=O)(=O)Nc2ccc(C(F)(F)F)c(-c3ccc(F)cc3Cl)n2)n1` [Example 41, 6-amino-N-(6-(2-chloro-4-fluorophenyl)-5-(trifluoromethyl)pyridin-2-yl)pyridine-2-sulfonamide] are 368%, 2340 nM, 88.8% and 13.9 nM.
In the same order, the values of `Cc1ccc(F)cc1-c1nc(NS(=O)(=O)c2ccnc(N)c2)ccc1C(F)(F)F` [Example 42, 2-amino-N-(6-(5-fluoro-2-methylphenyl)-5-(trifluoromethyl)pyridin-2-yl)pyridine-4-sulfonamide] are 367%, 2260 nM, 72.4% and 39.9 nM.
Consider `Nc1cccc(S(=O)(=O)Nc2ccc(Cl)c(-c3cc(C(F)(F)F)ccc3Cl)n2)n1` [Example 43, 6-amino-N-(5-chloro-6-(2-chloro-5-(trifluoromethyl)phenyl)pyridin-2-yl)pyridine-2-sulfonamide], for which, in experiment [1], the Emax amounted to 361% and the EC50 was found to be 2120 nM. For the same compound, at delF508-CFTR, the “MTECC24 CFHBEC- Amax %” value is given as 54.2% and the EC50 amounted to 63.3 nM.
On to `Cc1ccc(F)cc1-c1nc(NS(=O)(=O)c2ccc(N)nc2)ccc1Cl` [Example 44, 6-amino-N-(5-chloro-6-(5-fluoro-2-methylphenyl)pyridin-2-yl)pyridine-3-sulfonamide], for which, in experiment [1], the Emax came to 346% and the EC50 is 1770 nM. Besides, on delF508-CFTR, the “MTECC24 CFHBEC- Amax %” value is listed as 61.6% and the EC50 stood at 46 nM.
In the same order, the values of `Nc1cccc(S(=O)(=O)Nc2ccc(Cl)c(-c3ccccc3C(F)(F)F)n2)n1` [Example 55, 6-amino-N-(5-chloro-6-(2-(trifluoromethyl)phenyl)pyridin-2-yl)pyridine-2-sulfonamide] are 305%, 1700 nM, 86.7% and 15.5 nM.
Take `Nc1cccc(S(=O)(=O)Nc2ccc(Cl)c(-c3ccc(F)cc3Cl)n2)n1` [Example 56, 6-amino-N-(5-chloro-6-(2-chloro-4-fluorophenyl)pyridin-2-yl)pyridine-2-sulfonamide]: in experiment [1], the Emax was determined as 301% and the EC50 is 2580 nM. In addition, at delF508-CFTR, the “MTECC24 CFHBEC- Amax %” value was 63.9% and the EC50 was 28.3 nM.
